# Measured values reported in ChEMBL document CHEMBL1130699, “Coprophilin: an anticoccidial agent produced by a dung inhabiting fungus” (1998).
# The source made the active and inactive calls. The calls are words filed in the database; no cut-off is given here.
# Key:
# MDBK441 [1] = test: Compound was tested for inhibition of the growth of Eimeria tenella in MDBK 441 cell line up to concentration 25 uM; no inhibition; assay type: functional, cell-based; details: Bos taurus
# MDBK441 [2] = test: Compound was tested for inhibition of the growth of Eimeria tenella in MDBK 441 cell line; assay type: functional; details: Bos taurus
MIC (MDBK441 [1]),MIC (MDBK441 [2]) [µM],Compound
inactive,–,COC(=O)CCCC[C@@H]1[C@H]2[C@H](C)[C@@H](O)C(C)C[C@]2(C)CC[C@@H]1C (stereo partly drawn)
inactive,–,CC1C[C@]2(C)C=C[C@H](C)[C@H](/C=C/C=C/C(=O)O)[C@H]2[C@H](C)[C@H]1O (stereo partly drawn)
–,1.5,COC(=O)/C=C/C=C/[C@@H]1[C@H]2[C@H](C)[C@@H](O)C(C)C[C@]2(C)C=C[C@@H]1C (stereo partly drawn)
